Assay results published in patent EP4674849A1, “FLUORESCENT DYE FOR DETECTING NUCLEIC ACID” (Keio University, priority 2023, dated 2024).

Biological target: deoxyribonucleic acid (derived from salmon sperm) with a length of 500 to 1000 bp
Assay: DNA binding assay of fluorescent dyes (fluorescence titration, fit to McGhee-von Hippel equation)
Settings: TE buffer (pH: 8.0); dye 200, 400, 800 nM; DNA 0.5-12 µM; excitation 475 nm, emission 520 nm; read-out: Dissociation constant Kd

Kd: 1000 ± 90 nM
SMILES: CCCN(CCCN(C)C)c1cc(/C=C2/Sc3ccccc3N2C)c2ccccc2[n+]1-c1ccccc1
